Results reported in patent US8513232B2, “Substituted spirocyclic piperidine derivatives as histamine-3 (H3) receptor ligands” (Cephalon, Inc., priority 2008, dated 2013).
Where two headings read alike, the source gives them in different places.

Legend:
human H3 receptor = target: T1, human H3 receptor (Homo sapiens, UniProt Q9Y5N1); assay: Human H3 radioligand binding ([3H]-N-alpha-methylhistamine, SPA)
T1 construct: expressed in transfected cells
How it was run: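 Compounds (0.01 nM-30 μM) competed with approximately 1 nM [3H]-N-alpha-methylhistamine for human H3 receptor in membranes of stably transfected CHO cells, 10 μg protein per well, in Tris-HCl pH 7.4/MgCl2/BSA buffer for 4 h at room temperature. Bound radioligand measured by scintillation proximity; 10 μM clobenpropit gave non-specific binding.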

[1] = target: T2, rat histamine H3 receptor (Rattus norvegicus, UniProt Q9QYN8); assay: Rat H3 radioligand binding ([3H]-N-alpha-methylhistamine, SPA)
T2 construct: encoding the entire 445-amino-acid rat histamine H3 receptor; expressed in transfected cells; membrane preparation
T2 sequence (Q9QYN8 whole entry): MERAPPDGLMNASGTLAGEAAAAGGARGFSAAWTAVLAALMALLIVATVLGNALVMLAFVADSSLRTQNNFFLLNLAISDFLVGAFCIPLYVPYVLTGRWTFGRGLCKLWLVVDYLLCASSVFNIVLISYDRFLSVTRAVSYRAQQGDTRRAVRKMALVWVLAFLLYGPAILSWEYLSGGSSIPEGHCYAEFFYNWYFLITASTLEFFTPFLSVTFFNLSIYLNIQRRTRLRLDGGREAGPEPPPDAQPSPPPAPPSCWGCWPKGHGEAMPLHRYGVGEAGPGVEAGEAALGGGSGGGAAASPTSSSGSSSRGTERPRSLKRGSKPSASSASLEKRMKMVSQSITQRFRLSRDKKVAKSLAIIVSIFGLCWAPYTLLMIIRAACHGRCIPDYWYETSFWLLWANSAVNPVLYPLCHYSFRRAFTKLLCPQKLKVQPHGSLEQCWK
How it was run: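 SPA-bead binding assay using [3H]-N-alpha-methylhistamine (approximately 1 nM final) with test compounds from 0.01 nM to 30 μM. Rat H3 receptor membranes came from stably transfected CHO-A3 cells; incubation ran 4 h at room temperature, in the dark, in Tris pH 7.4 buffer with MgCl2 and BSA. Clobenpropit (10 μM) gave non-specific binding.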

[2] = Table A, human H3 binding, read-out: Human Ki
[3] = Table A, rat H3 binding, read-out: Rat Ki
[4] = Table C, human H3 binding, read-out: Human H3 Ki
[5] = Table C, rat H3 binding, read-out: Rat H3 Ki
[6] = human H3 binding, Table D, read-out: Human H3 Ki
[7] = rat H3 binding, Table D, read-out: Rat H3 Ki
[8] = Human H3 binding, Table B, Examples 136-362, read-out: hum H3 binding Ki
[9] = Rat H3 binding, Table B, Examples 136-362, read-out: rat H3 binding Ki

T1 sequence (Q9Y5N1 whole entry): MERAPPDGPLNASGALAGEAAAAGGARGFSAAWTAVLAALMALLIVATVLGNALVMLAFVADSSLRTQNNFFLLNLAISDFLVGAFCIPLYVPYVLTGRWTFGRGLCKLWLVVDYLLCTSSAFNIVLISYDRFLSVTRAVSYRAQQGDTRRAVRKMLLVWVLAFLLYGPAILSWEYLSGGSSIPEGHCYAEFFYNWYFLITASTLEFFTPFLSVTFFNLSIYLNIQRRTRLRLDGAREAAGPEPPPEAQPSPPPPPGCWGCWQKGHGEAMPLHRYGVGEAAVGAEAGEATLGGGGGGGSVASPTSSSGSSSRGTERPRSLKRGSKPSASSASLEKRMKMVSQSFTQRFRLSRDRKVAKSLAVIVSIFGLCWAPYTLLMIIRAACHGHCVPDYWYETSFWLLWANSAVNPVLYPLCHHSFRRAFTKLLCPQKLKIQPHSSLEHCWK

Row | SMILES | melting point | Ki (human H3 receptor; [6]) [nM] | Ki [1, 7] [nM] | Ki (human H3 receptor; [8]) [nM] | Ki [1, 9] [nM] | also measured
1 | CN1CC(COc2ccc3c(c2)CCC2(CCN(C4CCC4)CC2)O3)CC1=O (stereo not drawn) [Example 519] | 234 to 236 °C |  |  |  |  | Ki (human H3 receptor; read-out: Human H3 Ki): < 200 nM; Ki ([1]; read-out: Rat H3 kI): < 200 nM
2 | OC1(c2ccc3c(c2)COC2(CCN(C4CCC4)CC2)O3)CCOC1 (stereo not drawn) [Example 506] | 50 °C |  |  |  |  | Ki (human H3 receptor; read-out: Human H3 Ki): < 200 nM; Ki ([1]; read-out: Rat H3 kI): < 200 nM
3 | c1nc(-c2ccc3c(c2)COC2(CCN(C4CCC4)CC2)O3)cs1 [Example 66] | 165 to 166 °C |  |  |  |  | Ki (human H3 receptor; [2]): < 200 nM; Ki [1, 3]: < 200 nM
4 | OC(c1ccc(F)cc1)c1ccc2c(c1)COC1(CCN(C3CCC3)CC1)O2 (stereo not drawn) [Example 513] | 58 to 62 °C |  |  |  |  | Ki (human H3 receptor; read-out: Human H3 Ki): < 200 nM; Ki ([1]; read-out: Rat H3 kI): < 200 nM
5 | c1ccc(OC2CCN(c3ccc4c(c3)CCC3(CCN(C5CCC5)CC3)O4)CC2)nc1 [Example 412] | 240 to 245 °C |  |  |  |  | Ki (human H3 receptor; [4]): < 200 nM; Ki [1, 5]: < 200 nM
6 | CC(C)NC(=O)c1ccc(-c2ccc3c(c2)COC2(CCN(C4CCC4)CC2)O3)cc1Cl [Example 596] | 186 to 187.5 °C | < 200 | < 200 |  |  | 
7 | CN(C)C(=O)c1cnc(COc2ccc3c(c2)CCC2(CCN(C4CCC4)CC2)O3)cn1 [Example 619] | 120 to 123 °C | < 200 | < 200 |  |  | 
8 | Cc1cc(=O)[nH]cc1-c1ccc2c(c1)COC1(CCN(C3CCC3)CC1)O2 [Example 651] | 217 to 220 °C | < 200 | < 200 |  |  | 
9 | O=C1CCC(c2ccc3c(c2)CCC2(CCN(C4CCC4)CC2)O3)CN1 (stereo not drawn) [Example 534] | 292 to 294 °C |  |  |  |  | Ki (human H3 receptor; read-out: Human H3 Ki): < 200 nM; Ki ([1]; read-out: Rat H3 kI): < 200 nM
10 | O=C(Nc1ccc2c(c1)COC1(CCN(C3CCC3)CC1)O2)N1CCOCC1 [Example 165] | 238 to 240 °C |  |  | < 200 | 200 to 1000 | 
11 | CNC(=O)c1c(F)cc(-c2ccc3c(c2)CCC2(CCN(C4CCC4)CC2)O3)cc1F [Example 226] | 110 to 112 °C |  |  | < 200 | < 200 | 
12 | O=C(c1ccc(-c2ccc3c(c2)COC2(CCN(C4CCC4)CC2)O3)cc1)N1CCC[C@@H](O)C1 [Example 201] | 85 to 87 °C |  |  | < 200 | < 200 | 
13 | Cc1ncoc1C(=O)Nc1ccc2c(c1)CCC1(CCN(C3CCC3)CC1)O2 [Example 243] | 169 to 171 °C |  |  | < 200 | < 200 | 
14 | Cc1noc(C)c1C(=O)N1CCN(c2ccc3c(c2)COC2(CCN(C4CCC4)CC2)O3)C(=O)C1 [Example 738] | 103 to 106 °C | < 200 | < 200 |  |  | 
15 | COCCN(C)C(=O)c1ccc(-c2ccc3c(c2)CCC2(CCN(C4CCC4)CC2)O3)cc1Cl [Example 575] | 101 to 104 °C | < 200 | < 200 |  |  | 
16 | N#Cc1ccc(Nc2ccc3c(c2)COC2(CCN(C4CCC4)CC2)O3)cc1 [Example 122] | 55 to 60 °C |  |  |  |  | Ki (human H3 receptor; [2]): < 200 nM; Ki [1, 3]: < 200 nM
17 | FC1CCN(c2ccc3c(c2)CCC2(CCN(C4CCC4)CC2)O3)CC1 [Example 397] | > 265 °C (dec.) |  |  |  |  | Ki (human H3 receptor; [4]): < 200 nM; Ki [1, 5]: < 200 nM
18 | c1cncc(CNc2ccc3c(c2)COC2(CCN(C4CCC4)CC2)O3)c1 [Example 321] | 117 to 118 °C |  |  | < 200 | < 200 | 
19 | c1ccc(-c2ccc3c(c2)COC2(CCN(C4CCC4)CC2)O3)cc1 [Example 39] | 127.8 to 128.6 °C |  |  |  |  | Ki (human H3 receptor; [2]): < 200 nM; Ki [1, 3]: < 200 nM

Row | SMILES | melting point | Ki (human H3 receptor; [6]) [nM] | Ki [1, 7] [nM] | Ki (human H3 receptor; [8]) [nM] | Ki [1, 9] [nM] | also measured
20 | CNC(=O)c1ccc(-c2ccc3c(c2)COC2(CCN(C4CCC4)CC2)O3)c(OC)c1 [Example 682] | 87 to 90 °C | < 200 | < 200 |  |  | 
21 | O=C(NC[C@@H]1CCCO1)c1ccc(-c2ccc3c(c2)COC2(CCN(C4CCC4)CC2)O3)cc1F [Example 589] | 128 to 130 °C | < 200 | < 200 |  |  | 
22 | O=C(Nc1ccc2c(c1)COC1(CCN(C3CCC3)CC1)O2)c1ccncn1 [Example 297] | 198 to 199 °C |  |  | < 200 | < 200 | 
23 | O=C(Nc1ccc2c(c1)COC1(CCN(C3CCC3)CC1)O2)c1ccc2nccn2c1 [Example 345] | 254 to 255 °C |  |  | < 200 | < 200 | 
24 | CN(C)C(=O)c1ccc(COc2ccc3c(c2)CCC2(CCN(C4CCC4)CC2)O3)nc1 [Example 674] | 75 to 78 °C | < 200 | < 200 |  |  | 
25 | COc1ccc(-c2ccc3c(c2)COC2(CCN(C4COC4)CC2)O3)cn1 [Example 713] | 162 to 164 °C | 200 to 1000 | > 1000 |  |  | 
26 | CCc1nnc(COc2ccc3c(c2)CCC2(CCN(C4CCC4)CC2)O3)o1 [Example 678] | 170 to 172 °C | < 200 | < 200 |  |  | 
27 | CN1CCN(c2ccc3c(c2)COC2(CCN(C4CCC4)CC2)O3)C1=O [Example 82] | 180 to 181 °C |  |  |  |  | Ki (human H3 receptor; [2]): < 200 nM; Ki [1, 3]: < 200 nM
28 | c1cc(CNc2ccc3c(c2)COC2(CCN(C4CCC4)CC2)O3)cs1 [Example 336] | 101 to 102 °C |  |  | < 200 | < 200 | 
29 | CN(c1ccc2c(c1)COC1(CCN(C3CCC3)CC1)O2)c1ccccn1 [Example 144] | 216 to 220 °C |  |  | < 200 | < 200 | 
30 | O=C(NC1CCOCC1)c1ccc(-c2ccc3c(c2)COC2(CCN(C4CCC4)CC2)O3)cn1 [Example 639] | 108 to 110 °C | < 200 | < 200 |  |  | 
31 | c1cnc(Nc2ccc3c(c2)COC2(CCN(C4CCC4)CC2)O3)nc1 [Example 127] | 55 to 58 °C |  |  |  |  | Ki (human H3 receptor; [2]): < 200 nM; Ki [1, 3]: < 200 nM
32 | CC(C)NC(=O)c1ccc(-c2ccc3c(c2)CCC2(CCN(C4CCC4)CC2)O3)cc1F [Example 355] | 131 to 132 °C |  |  | < 200 | < 200 | 
33 | CCn1cc(-c2ccc3c(c2)COC2(CCN(C4CCC4)CC2)O3)ccc1=O [Example 778] | 156 to 158 °C | < 200 | < 200 |  |  | 
34 | COc1ccc(-c2ccc3c(c2)COC2(CCN(CCC4CCOCC4)CC2)O3)cn1 [Example 711] | 143 to 145 °C | > 1000 | > 1000 |  |  | 
35 | CN(C)C(=O)NC1CCN(c2ccc3c(c2)CCC2(CCN(C4CCC4)CC2)O3)CC1 [Example 573] | 204.2 to 206.4 °C | < 200 | < 200 |  |  | 
36 | CNC(=O)c1ccc(-c2ccc3c(c2)CCOC2(CCN(C4CCC4)CC2)O3)cn1 [Example 175] | 141 to 142.2 °C |  |  | 200 to 1000 | > 1000 | 
37 | COCCNC(=O)c1ccc(-c2ccc3c(c2)CCC2(CCN(C4CCC4)CC2)O3)cc1F [Example 217] | 190 to 192 °C |  |  | < 200 | < 200 | 
38 | c1ncc(-c2ccc3c(c2)COC2(CCN(C4CCC4)CC2)O3)cn1 [Example 45] | 153 to 155 °C |  |  |  |  | Ki (human H3 receptor; [2]): < 200 nM; Ki [1, 3]: < 200 nM
